Molecules are shown by their SMILES. “Also recorded” adds a separate entry of the source. Where two headings read alike, the source gives them in different places.

The conditions of data set [1]: concentration-independent; cited from earlier work.
The subject of data set [2] is P-gp/BCRP. Particulars: literature, cited from earlier work.
Data set [3] relates to patients who harbored a BRAF, NRAS, or KRAS mutation. Particulars: cited from earlier work.
The conditions of data set [4]: cited from earlier work; for B/P (nonclinical), percentage of brain exposure relative to plasma: mice, literature.
The conditions of data set [5]: healthy subjects; cited from earlier work.
For data set [6], the system named is human tumor xenograft models. Particulars: highest doses tested; cited from earlier work.
The target in data set [7] is T1, BCRP (ABCG2) (Homo sapiens, UniProt Q9UNQ0).
T1 construct: expressed by SOLVO Biotechnology in mammalian (K and M) cells by chemical selection; purchased SOLVO Biotechnology; host or cells: mammalian (K and M) cells, overexpression by chemical selection
T1 sequence (Q9UNQ0 1-655): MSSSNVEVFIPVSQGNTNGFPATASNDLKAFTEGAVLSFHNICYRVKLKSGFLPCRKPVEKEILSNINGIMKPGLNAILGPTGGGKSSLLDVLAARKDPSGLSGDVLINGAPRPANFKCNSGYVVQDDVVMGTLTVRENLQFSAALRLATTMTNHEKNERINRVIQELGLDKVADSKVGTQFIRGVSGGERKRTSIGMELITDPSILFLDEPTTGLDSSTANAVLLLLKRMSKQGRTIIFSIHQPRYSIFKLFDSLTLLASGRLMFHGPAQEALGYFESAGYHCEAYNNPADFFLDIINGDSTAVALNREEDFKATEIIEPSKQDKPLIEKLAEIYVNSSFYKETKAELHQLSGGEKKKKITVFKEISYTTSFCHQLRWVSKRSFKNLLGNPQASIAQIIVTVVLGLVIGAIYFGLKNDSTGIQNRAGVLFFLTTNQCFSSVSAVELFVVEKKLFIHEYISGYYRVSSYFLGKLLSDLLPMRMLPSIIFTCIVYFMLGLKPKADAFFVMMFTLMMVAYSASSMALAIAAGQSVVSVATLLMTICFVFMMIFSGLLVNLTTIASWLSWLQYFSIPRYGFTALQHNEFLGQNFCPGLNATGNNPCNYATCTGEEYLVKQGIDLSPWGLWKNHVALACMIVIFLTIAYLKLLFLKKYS
Kind of data set: Vesicular transport inhibition assay. The class given is in vitro ADME. Particulars: BCRP-mediated E3S accumulation. The procedure:
(§1) Stock solutions of belvarafenib 2HCl (10 mM, 1.33 mM, 1 mM and 0.1 mM) were prepared in DMSO. Serial dilutions (7-step, 3-fold) were prepared in DMSO, and used as the test solutions in the inhibition assays (100-fold dilution). The dilution factor in substrate experiments was 100-fold.
(§2) Instruments used for detection include a Thermo Scientific Dionex UltiMate 3000 series UHPLC (Thermo Scientific, San Jose, CA) with a Thermo Scientific TSQ Quantum Access Max triple quadrupole MS; a Perkin Elmer MicroBeta2liquid scintillation counter (Perkin Elmer, Waltham MA) and a BMG Labtech FluoStar Omega multifunctional microplate reader (BMG Labtech, Offenburg, Germany).
(§3) Vesicular transport assays were performed with inside-out membrane vesicles prepared from cells overexpressing human ABC transporters. The transporter has been expressed by SOLVO Biotechnology in mammalian (K and M) cells by chemical selection.
(§4) Parameters of the vesicular transport assays are listed in Table 6 where: “BCRP” refers to breast cancer resistance protein; “MDR1” refers to multidrug resistance protein 1; “E3S” refers to Estrone-3-sulfate; and “NMQ” refers to N-methyl quinidine.
(§5) Belvarafenib 2HCl was incubated with membrane vesicle preparations (total protein: 50 μg/well for MDR1, and 25 µg/well for BCRP) and the probe substrate. Incubations were carried out in the presence of 4 mM ATP or AMP to distinguish between transporter-mediated uptake and passive diffusion into the vesicles. Belvarafenib 2HCl was added to the reaction mixture in 0.75 μL of solvent ([…] of the final incubation volume). Reaction mixtures were pre-incubated for 15 minutes at 37±1° C. (or 32±1° C. for BCRP). Reactions were initiated by the addition of 25 μL of 12 mM MgATP (or 12 mM AMP in assay buffer as a background control), preincubated separately. Reactions were quenched by the addition of 200 μL of ice-cold washing buffer and immediate filtration via glass fiber filters mounted to a 96-well plate (filter plate). The filters were washed (5×200 μL of ice-cold washing buffer), dried and the amount of substrate inside the filtered vesicles was determined by liquid scintillation counting.
(§6) The controls were as follows. Incubation with AMP provided background activity values for all data points. Incubation with probe substrate (solvent only) provided 100% activity values. A reference inhibitor served as positive control for inhibition.
(§7) For all wells the amount of the translocated probe substrate was determined in cpm. Relative activities were calculated using the following equation: Relative Activity %=(A−B)/(C−D)*100. A is the amount of translocated substrate in the presence of TA and ATP. B is the amount of translocated substrate in the presence of TA and AMP. C is the amount of translocated substrate in the presence of solvent and ATP. D is the amount of translocated substrate in the presence of solvent and AMP.
(§8) Microsoft Excel 2010 (Microsoft Corporation, Redmond, WA) was used for basic data processing and GraphPad Prism 5.0 (GraphPad Software Inc., San Diego, CA) was used for curve fitting and determination of reaction parameters. In vesicular transport inhibition assays, the IC50 (μM) was calculated, where applicable. IC50 was defined as the concentration of TA required to inhibit maximal activity by 50%. IC50 values were derived from a four parametric logistic equation [log(inhibitor) vs. response−variable slope]; the curve was fitted to the relative activity vs. TA concentration plot using non-linear regression.

The target in data set [8] is T2, MDR1 (ABCB1/P-gp) (Homo sapiens, UniProt P08183).
T2 construct: expressed by SOLVO Biotechnology in mammalian (K and M) cells by chemical selection; purchased SOLVO Biotechnology; host or cells: mammalian (K and M) cells, overexpression by chemical selection
T2 sequence (P08183 whole entry): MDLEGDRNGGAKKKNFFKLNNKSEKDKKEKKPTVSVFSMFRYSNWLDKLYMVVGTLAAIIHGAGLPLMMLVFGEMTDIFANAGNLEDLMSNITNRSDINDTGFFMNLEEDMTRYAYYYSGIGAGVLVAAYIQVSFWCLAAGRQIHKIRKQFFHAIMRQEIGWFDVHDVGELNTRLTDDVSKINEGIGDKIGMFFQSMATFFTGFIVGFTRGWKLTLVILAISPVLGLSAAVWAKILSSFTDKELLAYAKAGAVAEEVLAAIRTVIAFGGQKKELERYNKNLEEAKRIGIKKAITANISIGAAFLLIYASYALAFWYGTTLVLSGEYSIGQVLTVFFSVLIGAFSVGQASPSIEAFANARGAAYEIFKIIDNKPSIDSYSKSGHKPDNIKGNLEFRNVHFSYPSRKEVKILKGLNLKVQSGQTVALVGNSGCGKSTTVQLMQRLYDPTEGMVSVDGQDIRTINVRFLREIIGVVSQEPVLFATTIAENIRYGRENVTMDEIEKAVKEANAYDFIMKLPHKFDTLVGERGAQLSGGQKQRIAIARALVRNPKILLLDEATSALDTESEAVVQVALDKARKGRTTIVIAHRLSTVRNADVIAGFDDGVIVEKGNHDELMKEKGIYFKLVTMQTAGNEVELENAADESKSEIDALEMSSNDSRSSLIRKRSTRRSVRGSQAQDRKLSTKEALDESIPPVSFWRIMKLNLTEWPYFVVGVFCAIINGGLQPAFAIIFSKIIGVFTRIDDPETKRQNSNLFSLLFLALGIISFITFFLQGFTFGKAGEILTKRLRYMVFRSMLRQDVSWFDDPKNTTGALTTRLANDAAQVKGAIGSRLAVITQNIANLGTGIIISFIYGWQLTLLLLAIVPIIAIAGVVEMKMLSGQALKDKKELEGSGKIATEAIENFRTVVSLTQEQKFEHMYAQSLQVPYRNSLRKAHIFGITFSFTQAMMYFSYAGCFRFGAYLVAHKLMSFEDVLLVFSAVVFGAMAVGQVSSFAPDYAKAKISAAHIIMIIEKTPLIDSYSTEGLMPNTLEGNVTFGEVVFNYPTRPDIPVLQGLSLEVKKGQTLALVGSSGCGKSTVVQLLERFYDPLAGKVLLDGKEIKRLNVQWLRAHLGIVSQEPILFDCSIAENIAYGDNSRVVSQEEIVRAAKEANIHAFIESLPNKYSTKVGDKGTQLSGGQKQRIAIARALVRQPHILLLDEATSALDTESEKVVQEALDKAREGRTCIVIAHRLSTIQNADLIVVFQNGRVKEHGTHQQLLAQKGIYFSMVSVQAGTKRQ
Kind of data set: Vesicular transport inhibition assay. It counts as in vitro ADME. Particulars: MDR1-mediated NMQ accumulation. The method, then: as §1, §2, §3, §4, §5, §6, §7, §8

In data set [9] the target is T1, BCRP (ABCG2). Kind of data set: Vesicular transport substrate assay. The class given is in vitro ADME. The procedure: as §1, §2, §3
(§9) Experimental method for vesicular transport substrate assay. The uptake of belvarafenib 2HCl into membrane vesicles was determined using inside-out membrane vesicles (total protein: 50 μg/well for MDR1, or 25 μg/well for BCRP) prepared from cells overexpressing BCRP or MDR1 ABC transporters as well as from control cells. Two incubation time points (2 and 20 min) and two concentrations (1 and 10 μM) of belvarafenib 2HCl were tested in the presence of ATP or AMP, to determine whether belvarafenib 2HCl is actively transported into the vesicles. Reaction mixtures as well as start reagents (MgATP and AMP solutions) were pre-incubated for 15 minutes at 32° C. for BCRP, and 37° C. for MDR1 assay. Reactions were initiated by addition of the start reagent (MgATP or AMP) to the appropriate wells. Reactions were quenched by the addition of 200 μL of ice-cold washing buffer and immediate filtration via glass fiber filters mounted to a 96-well plate (filter plate). The filters were washed 5×200 μL of ice-cold washing buffer and dried. The amount of accumulated belvarafenib 2HCl retained inside the vesicles was determined by LC-MS/MS detection after washing the vesicles 2 times with 100 μL MeOH:H2O (2:1).
(§10) In the vesicular transport substrate assays, the ATP-dependent transport of the TA as well as the ATP-dependent fold accumulation was calculated for each concentration and time point using the following equation, in both the transporter-containing and control vesicles:
(§11) ATP−dependent transport=nATP−NAMP Fold accumulation=nATP/nAMP
(§12) nATP is the amount of translocated TA in the presence of 4 mM ATP, in pmol/mg. nAMP is the amount of translocated TA in the presence of 4 mM AMP, in pmol/m. […]

Data set [10] addresses T2, MDR1 (ABCB1/P-gp). Description: Vesicular transport substrate assay. The class given is in vitro ADME. The procedure:
as §1, §2, §3, §9, §10, §11, §12

[11] abbreviates: Stage III of Study MEK4592g, 18 patients.
Where [12] appears, read: cobimetinib single agent, Study MEK4592g.

For the compound `O=C(c1ccc(F)c(F)c1Nc1ccc(I)cc1F)N1CC(O)([C@@H]2CCCCN2)C1` [Cobimetinib], in data set [1], the “binding to plasma proteins” value is on record as 95%. For the same compound, the “P-gp/BCRP efflux substrate?” value in data set [2] was “Yes (P-gp)”. Besides, in [3] (setting [11]), the “patients with SD as best overall response” value is recorded as 22.2% and the “patients with unconfirmed tumor responses” value was 11.1%. Besides, in [3] (setting [12]), the “patients with confirmed partial response (PR)” value is on record as 6.2% and the “patients with progressive disease” value was 41.2%. Besides, the “B/P (nonclinical), percentage of brain exposure relative to plasma” value in data set [4] was 30%. The “food effect on pharmacokinetics, fed state compared with fasted state” value in data set [5] is “not altered”. Besides, in data set [6], the tumor regression entry is “up to 100%”.
For the compound `C[C@@H](NC(=O)c1ncnc(N)c1Cl)c1ncc(C(=O)Nc2cc(C(F)(F)F)c(Cl)cn2)s1` [DAY101], in [2], the “P-gp/BCRP efflux substrate?” value is listed as “Yes (BCRP)”. Also, the “B/P (nonclinical), percentage of brain exposure relative to plasma” value in data set [4] is reported as 20-34% ^.
As to `CC(C)(C)c1nc(-c2cccc(NS(=O)(=O)c3c(F)cccc3F)c2F)c(-c2ccnc(N)n2)s1` [Dabrafenib], the “P-gp/BCRP efflux substrate?” value in [2] was “Yes (P-gp + BCRP)”; in data set [2] (listed as dabrafenib), “is a P-gp and a BCRP efflux substrate”. Also, in [4], the “B/P (nonclinical), percentage of brain exposure relative to plasma” value is 2-4%.
Turning to `COC(=O)N[C@@H](C)CNc1nccc(-c2cn(C(C)C)nc2-c2cc(Cl)cc(NS(C)(=O)=O)c2F)n1` [Encorafenib], the “P-gp/BCRP efflux substrate?” value was “Yes (P-gp + BCRP)” in data set [2]; “is a P-gp and a BCRP efflux substrate” in data set [2] (listed as encorafenib). For the same compound, the “brain to plasma ratio” value in data set [4] (literature values) is “about 0.004”. The “B/P (nonclinical), percentage of brain exposure relative to plasma” value in data set [4] is 0.4%.
Take `Cn1cnc2c(F)c(Nc3ccc(Br)cc3Cl)c(C(=O)NOCCO)cc21` [Selumetinib]: the “P-gp/BCRP efflux substrate?” value in data set [2] is given as “Yes (P-gp + BCRP)”. Also, in [4], the “B/P (nonclinical), percentage of brain exposure relative to plasma” value is listed as 2%.
Consider `CC(=O)Nc1cccc(-n2c(=O)n(C3CC3)c(=O)c3c(Nc4ccc(I)cc4F)n(C)c(=O)c(C)c32)c1` [Trametinib], for which, in data set [2], the “P-gp/BCRP efflux substrate?” value was “Yes (P-gp + BCRP)”. Moreover, the “B/P (nonclinical), percentage of brain exposure relative to plasma” value in data set [4] is on record as 15%.
On to `CCCS(=O)(=O)Nc1ccc(F)c(C(=O)c2c[nH]c3ncc(-c4ccc(Cl)cc4)cc23)c1F` [Vemurafenib], for which the “P-gp/BCRP efflux substrate?” value in [2] was “Yes (P-gp + BCRP)”; in [2] (listed as vemurafenib), “is a P-gp and a BCRP efflux substrate”. For the same compound, the “B/P (nonclinical), percentage of brain exposure relative to plasma” value in data set [4] was 0.4-1% ^.
On to `Cc1ccc2c(Nc3cccc(Cl)c3F)nccc2c1NC(=O)c1csc2c(N)ncnc12` [belvarafenib 2HCl], for which the “Maximum inhibition (% of control)” value in data set [7] (0.02-13.3 μM) was found to be 99.8%. For the same compound, the IC50 in data set [7] (estimated, top of the curve constrained at 100%) was 11 nM; in [8] (estimated, bottom constrain (0%), inhibition did not reach 50%) it was 29.6 µM. Moreover, in data set [7] (human, probe estrone-3-sulfate (E3S), 0.02 μM, read-out: inhibition at the lowest investigated concentration), the inhibition at 0.02 µM stood at 70%. In data set [8] (human, probe N-methyl quinidine (NMQ), highest applied concentration (13.3 μM), read-out: Maximum inhibition (% of control)), the inhibition at 13.3 µM came to 32%. The “Maximum ATP dependent fold accumulation in transporter expressing vesicles” value in data set [9] (1 and 10 μM, 2 and 20 min) came out at 1.51; in data set [10] (1 and 10 μM, 2 and 20 min) it was 1.23. Further, the Substrate result in data set [9] (BCRP VT) and in data set [10] (MDR1 VT) was “probably not a substrate; also recorded: Unlikely” in each case.

These data come from patent US20240173329A1, “BELVARAFENIB FOR USE IN TREATMENT OF BRAIN CANCERS” (Genentech, Inc., priority 2021, published 2024).
